{"source": "patent US20210379146A1", "about": "“METHOD TO RESTORE OR IMPROVE COGNITIVE FUNCTIONS” (INSERM (INSTITUT NATIONAL DE LA SANTÉ ET DE LA RECHERCHE …, priority 2018, published 2021)", "key": {"C57BL/6J male mice [1]": {"system": "C57BL/6J male mice", "test": "Contextual fear conditioning (CFC)", "assay_type": "in vivo, mouse", "settings": "for memory performance in testing phase of CFC: 3 month-old WT mice, single acute hippocampal stereotactic injection 12 hours before training phase"}, "C57BL/6J male mice [2]": {"system": "C57BL/6J male mice", "test": "Novel object recognition (NOR)", "assay_type": "in vivo, mouse", "settings": "for memory performance in testing phase of NOR: 3 month-old WT mice, single acute hippocampal stereotactic injection 12 hours before training phase"}, "[3]": {"system": "hippocampal autophagy (LC3-II)", "settings": "16 month-old mice, 12 hours after hippocampal stereotactic injection, 1 μg/hemisphere, compared with 3 month-old mice"}, "C57BL/6J male mice [4]": {"system": "C57BL/6J male mice", "settings": "16 month-old mice, local hippocampal stereotactic injection 1 μg/hemisphere, versus 3 month-old mice"}, "[5]": {"settings": "16 month-old mice, 14 days of daily intraperitoneal injections, 450 μg"}, "[6]": {"settings": "16 month-old mice, local hippocampal stereotactic injection 1 μg/hemisphere, versus 3 month-old mice"}}, "data": [{"compound": "Fc1ccc(CNc2ncnc3ccc(F)cc23)cc1", "note": "[Spautin-1, reference compound]", "values": [{"measurement": "memory performance in testing phase of CFC", "setting": "C57BL/6J male mice [1]", "value": "significant decrease in memory performance"}, {"measurement": "memory performance in testing phase of NOR", "setting": "C57BL/6J male mice [2]", "value": "significant decrease in memory performance"}]}, {"compound": "CCN(CC)CCCC(C)Nc1ccnc2cc(Cl)ccc12", "note": "(centres unmarked) [chloroquine, Chloroquine, reference compound]", "values": [{"measurement": "memory performance in testing phase of CFC", "setting": "C57BL/6J male mice [1]", "value": "significant decrease in memory performance"}, {"measurement": "memory performance in testing phase of NOR", "setting": "C57BL/6J male mice [2]", "value": "significant decrease in memory performance"}]}, {"compound": "CC(=O)N[C@@H](CC(C)C)C(=O)N[C@@H](CC(C)C)C(=O)N[C@H](C=O)CCCNC(=N)N", "note": "[leupeptin, Leupeptin, reference compound]", "values": [{"measurement": "memory performance in testing phase of CFC", "setting": "C57BL/6J male mice [1]", "value": "significant decrease in memory performance"}, {"measurement": "memory performance in testing phase of NOR", "setting": "C57BL/6J male mice [2]", "value": "significant decrease in memory performance"}]}, {"compound": "YGRKKRRQRRRGGTNVFNATFEIWHDGEFGT [TAT-Beclin 1]", "values": [{"measurement": "memory performance in testing phase of CFC", "setting": "C57BL/6J male mice [1]", "value": "enhanced learning/memory capacities"}, {"measurement": "age-related memory decline, CFC", "setting": "C57BL/6J male mice [1]; [5]", "value": "counteract normal age-related memory decline"}, {"measurement": "age-related memory deficits, CFC", "setting": "C57BL/6J male mice [1]; [6]", "value": "rescue age-related memory deficits"}, {"measurement": "LC3-II levels (Western blot)", "setting": "[3]", "value": "restored LC3-II levels in old (16 months) to the level of young (3 months) mice"}, {"measurement": "memory performance in testing phase of NOR", "setting": "C57BL/6J male mice [2]", "value": "enhanced learning/memory capacities"}, {"measurement": "age-related memory decline, NOR", "setting": "C57BL/6J male mice [2]; [5]", "value": "counteract normal age-related memory decline"}, {"measurement": "age-related memory deficits, NOR", "setting": "C57BL/6J male mice [2]; [6]", "value": "rescue age-related memory deficits"}, {"measurement": "age-related memory deficits, OLM", "setting": "C57BL/6J male mice [4]", "value": "rescue age-related memory deficits"}]}]}
